Measurements reported in ChEMBL document CHEMBL1125580, “Synthesis and in vivo photodynamic activity of some bacteriochlorin derivatives against bladder tumors in rodents” (1991).

Tested on: Rattus norvegicus
Assay: Compound was evaluated in vivo for the effective dose of irradiation that causes antitumor activity
Assay type: functional
Conditions: light or radiation study

Row | SMILES | ED50
1 | CCC1=C(CC)c2cc3[nH]c(cc4[nH]c(cc5nc(cc1n2)C(=O)C5(CC)CC)c(CC)c4CC)C1(CC)C3=CCC(C(=O)OC)=C1C(=O)OC.CCC1=C(CC)c2cc3[nH]c(cc4[nH]c(cc5nc(cc1n2)C1=CCC(C(=O)OC)=C(C(=O)OC)C15CC)c(CC)c4CC)C(=O)C3(CC)CC (stereo not drawn) | 1 mg/kg
2 | C=CC1=C(CC)/C2=C/c3[nH]c(c(CC)c3CC)/C=C3N=C(/C=c4\[nH]/c(c(CC)c4CC)=C\C1N2)C(CC)(CC)C\3=O.C=CC1=C(CC)C2/C=c3\[nH]/c(c(CC)c3CC)=C\C3=NC(=C\c4[nH]c(c(CC)c4CC)/C=C/1N2)/C(=O)C3(CC)CC (mixture of isomers) | 2.5 mg/kg
3 | CCC1=C(CC)c2cc3[nH]c(cc4[nH]c(cc5nc(cc1n2)C(=O)C5(CC)CC)c(CC)c4CC)C1(CC)C3=CCC(C#N)(C#N)C1(C#N)C#N.CCC1=C(CC)c2cc3[nH]c(cc4[nH]c(cc5nc(cc1n2)C1=CCC(C#N)(C#N)C(C#N)(C#N)C15CC)c(CC)c4CC)C(=O)C3(CC)CC (mixture of isomers) | 2.5 mg/kg
